System: HeLa cells
Test: MTT antiproliferative assay on HeLa
Assay type: cell-based, human
Settings: 10 μM
Method: (§1) The antiproliferative assays of the products were carried out by a standard MTT method on human breast (MCF-7, T47D), cervical (HeLa, SiHa, C33A), and ovarian (A2780) cancer cells, and NIH/3T3 mouse embryonic fibroblast cell lines. In the first step, the diastereomeric and racemic mixtures 1–11 and the starting compound, juncuenin B, were tested to obtain information about their antiproliferative activity.
(§2) The antiproliferative activity and tumor selectivity of the compounds were measured by standard MTT assays. Tumor cell lines MCF-7, T47D, HeLa, A2780, and noncancerous NIH/3T3 were provided by European Collection of Authenticated Cell Cultures (ECACC, Salisbury, UK); cell lines SiHa and C33A by LGC Standards GmbH (Wesel, Germany). All chemicals and materials used for the antiproliferative assays were purchased from Sigma Aldrich Ltd. (Budapest, Hungary).
(§3) Growth-inhibition properties of racemates and pure enantiomer compounds were determined by standard MTT assays on six human malignant gynecological cell lines (MCF-7, T47D, HeLa, SiHa, C33A, A2780). To investigate tumor selectivity, the MTT assay was repeated on mouse embryonic fibroblast cells (NIH/3T3) under the same conditions. All cell lines were maintained in minimal essential medium (MEM) supplemented with 10% fetal bovine serum, 1% nonessential amino acids, and 1% penicillin–streptomycin–amphotericin B mixture, and were stored in humidified air containing 5% CO2 at 37 °C. All cell types were seeded into 96–well plates at a density of 5000 with the exception of C33a, which was seeded at a density of 10 000 and treated by increasing concentrations (0.1–30 μM) of the compounds for 72 h under cell culturing conditions. After the incubation, 5 mg/mL MTT [3-(4,5-dimethylthiazol-2-yl)-2,5-diphenyltetrazolium bromide] solution was added to samples for 4 h and precipitated blue formazan crystals were dissolved in DMSO. Absorbance values of the samples were measured at 545 nm using a microplate reader (Stat Fax-2100, Awareness Technologies Inc., Palm City, FL, USA) and untreated cells were used as control. Normalized sigmoidal dose–response curves were fitted to the determined data and the IC50 values were calculated by GraphPad Prism 5.01 (GraphPad Software, San Diego, CA, USA). Cisplatin (Ebewe Pharma GmbH, Unterach, Austria) was used as a reference agent in the same concentration range.

| SMILES | Growth inhibition (% ± SEM), HeLa [%] |
| --- | --- |
| C=CC1=C(C)C(=O)C=C2C3=C(CCC21OCC)C(C)(OCC)C(=O)C=C3 (single isomer, unassigned) [Compound 6b] | < 10 |

Same assay, conditions: 30 μM

| SMILES | Growth inhibition (% ± SEM), HeLa [%] |
| --- | --- |
| C=CC1=C(C)C(=O)C=C2C3=C(CCC21OCC)C(C)(OCC)C(=O)C=C3 (single isomer, unassigned) [Compound 6a] | 67.85±1.23 |
| C=CC1=C(C)C(=O)C=C2C3=C(CCC21OCC)C(C)(OCC)C(=O)C=C3 (single isomer, unassigned) [Compound 6b] | < 10 |

Same assay, conditions: Homo sapiens, HeLa, 10 μM; read-out: Growth inhibition (% ± SEM), HeLa

| SMILES | inhibition at 10 µM [%] |
| --- | --- |
| C=CC1=C(C)C(=O)C=C2C3=C(CCC21OCC)C(C)(OCC)C(=O)C=C3 (single isomer, unassigned) [Compound 6a] | < 10 |

Same assay, conditions: Homo sapiens, HeLa; MTT, 0.1–30 μM, 72 h, mean ± SEM; read-out: calculated IC50 values, HeLa

| SMILES | IC50 [µM] |
| --- | --- |
| C=CC1=C(C)C(=O)C=C2C3=C(CCC21OCC)C(C)(OCC)C(=O)C=C3 (single isomer, unassigned) [Compound 6a] | 25.9 ± 0.3 |

System: C33A cells
Test: MTT antiproliferative assay on C33A
Assay type: cell-based, human
Settings: 10 μM
Method: as §1, §2, §3

| SMILES | Growth inhibition (% ± SEM), C33a [%] |
| --- | --- |
| C=CC1=C(C)C(=O)C=C2C3=C(CCC21OCC)C(C)(OCC)C(=O)C=C3 (single isomer, unassigned) [Compound 6a] | 21.08±1.92 |
| C=CC1=C(C)C(=O)C=C2C3=C(CCC21OCC)C(C)(OCC)C(=O)C=C3 (single isomer, unassigned) [Compound 6b] | < 10 |

Same assay, conditions: 30 μM

| SMILES | Growth inhibition (% ± SEM), C33a [%] |
| --- | --- |
| C=CC1=C(C)C(=O)C=C2C3=C(CCC21OCC)C(C)(OCC)C(=O)C=C3 (single isomer, unassigned) [Compound 6a] | 93.17±0.50 |
| C=CC1=C(C)C(=O)C=C2C3=C(CCC21OCC)C(C)(OCC)C(=O)C=C3 (single isomer, unassigned) [Compound 6b] | < 10 |

Same assay, conditions: Homo sapiens, C-33-A; MTT, 0.1–30 μM, 72 h, mean ± SEM; read-out: calculated IC50 values, C33A

| SMILES | IC50 [µM] |
| --- | --- |
| C=CC1=C(C)C(=O)C=C2C3=C(CCC21OCC)C(C)(OCC)C(=O)C=C3 (single isomer, unassigned) [Compound 6a] | 14.1 ± 0.2 |

System: T47D cells
Test: MTT antiproliferative assay on T47D
Assay type: cell-based, human
Settings: 10 μM
Method: as §1, §2, §3

| SMILES | Growth inhibition (% ± SEM), T47d [%] |
| --- | --- |
| C=CC1=C(C)C(=O)C=C2C3=C(CCC21OCC)C(C)(OCC)C(=O)C=C3 (single isomer, unassigned) [Compound 6b] | < 10 |

Same assay, conditions: 30 μM

| SMILES | Growth inhibition (% ± SEM), T47d [%] |
| --- | --- |
| C=CC1=C(C)C(=O)C=C2C3=C(CCC21OCC)C(C)(OCC)C(=O)C=C3 (single isomer, unassigned) [Compound 6a] | 63.48±0.80 |
| C=CC1=C(C)C(=O)C=C2C3=C(CCC21OCC)C(C)(OCC)C(=O)C=C3 (single isomer, unassigned) [Compound 6b] | < 10 |

Same assay, conditions: Homo sapiens, T47D, 10 μM; read-out: Growth inhibition (% ± SEM), T47d

| SMILES | inhibition at 10 µM [%] |
| --- | --- |
| C=CC1=C(C)C(=O)C=C2C3=C(CCC21OCC)C(C)(OCC)C(=O)C=C3 (single isomer, unassigned) [Compound 6a] | < 10 |

Same assay, conditions: Homo sapiens, T47D; MTT, 0.1–30 μM, 72 h, mean ± SEM; read-out: calculated IC50 values, T47D

| SMILES | IC50 [µM] |
| --- | --- |
| C=CC1=C(C)C(=O)C=C2C3=C(CCC21OCC)C(C)(OCC)C(=O)C=C3 (single isomer, unassigned) [Compound 6a] | 22.9 ± 1.6 |

System: SiHa cells
Test: MTT antiproliferative assay on SiHa
Assay type: cell-based, human
Settings: 10 μM
Method: as §1, §2, §3

| SMILES | Growth inhibition (% ± SEM), SiHa [%] |
| --- | --- |
| C=CC1=C(C)C(=O)C=C2C3=C(CCC21OCC)C(C)(OCC)C(=O)C=C3 (single isomer, unassigned) [Compound 6b] | < 10 |

Same assay, conditions: 30 μM

| SMILES | Growth inhibition (% ± SEM), SiHa [%] |
| --- | --- |
| C=CC1=C(C)C(=O)C=C2C3=C(CCC21OCC)C(C)(OCC)C(=O)C=C3 (single isomer, unassigned) [Compound 6a] | 68.74±1.56 |
| C=CC1=C(C)C(=O)C=C2C3=C(CCC21OCC)C(C)(OCC)C(=O)C=C3 (single isomer, unassigned) [Compound 6b] | < 10 |

Same assay, conditions: Homo sapiens, SiHa, 10 μM; read-out: Growth inhibition (% ± SEM), SiHa

| SMILES | inhibition at 10 µM [%] |
| --- | --- |
| C=CC1=C(C)C(=O)C=C2C3=C(CCC21OCC)C(C)(OCC)C(=O)C=C3 (single isomer, unassigned) [Compound 6a] | < 10 |

Same assay, conditions: Homo sapiens, SiHa; MTT, 0.1–30 μM, 72 h, mean ± SEM; read-out: calculated IC50 values, SiHa

| SMILES | IC50 [µM] |
| --- | --- |
| C=CC1=C(C)C(=O)C=C2C3=C(CCC21OCC)C(C)(OCC)C(=O)C=C3 (single isomer, unassigned) [Compound 6a] | 29.7 ± 0.2 |

System: A2780 cells
Test: MTT antiproliferative assay on A2780
Assay type: cell-based, human
Settings: 10 μM
Method: as §1, §2, §3

| SMILES | Growth inhibition (% ± SEM), A2780 [%] |
| --- | --- |
| C=CC1=C(C)C(=O)C=C2C3=C(CCC21OCC)C(C)(OCC)C(=O)C=C3 (single isomer, unassigned) [Compound 6a] | 43.71±2.91 |
| C=CC1=C(C)C(=O)C=C2C3=C(CCC21OCC)C(C)(OCC)C(=O)C=C3 (single isomer, unassigned) [Compound 6b] | < 10 |

Same assay, conditions: 30 μM

| SMILES | Growth inhibition (% ± SEM), A2780 [%] |
| --- | --- |
| C=CC1=C(C)C(=O)C=C2C3=C(CCC21OCC)C(C)(OCC)C(=O)C=C3 (single isomer, unassigned) [Compound 6a] | 93.85±0.75 |
| C=CC1=C(C)C(=O)C=C2C3=C(CCC21OCC)C(C)(OCC)C(=O)C=C3 (single isomer, unassigned) [Compound 6b] | < 10 |

Same assay, conditions: Homo sapiens, A2780; MTT, 0.1–30 μM, 72 h, mean ± SEM; read-out: calculated IC50 values, A2780

| SMILES | IC50 [µM] |
| --- | --- |
| C=CC1=C(C)C(=O)C=C2C3=C(CCC21OCC)C(C)(OCC)C(=O)C=C3 (single isomer, unassigned) [Compound 6a] | 11.2 ± 0.3 |

System: MCF-7 cells
Test: MTT antiproliferative assay on MCF-7
Assay type: cell-based, human
Settings: 10 μM
Method: as §1, §2, §3

| SMILES | Growth inhibition (% ± SEM), MCF-7 [%] |
| --- | --- |
| C=CC1=C(C)C(=O)C=C2C3=C(CCC21OCC)C(C)(OCC)C(=O)C=C3 (single isomer, unassigned) [Compound 6b] | 14.17±2.25 |

Same assay, conditions: 30 μM

| SMILES | Growth inhibition (% ± SEM), MCF-7 [%] |
| --- | --- |
| C=CC1=C(C)C(=O)C=C2C3=C(CCC21OCC)C(C)(OCC)C(=O)C=C3 (single isomer, unassigned) [Compound 6a] | 45.64±0.26 |
| C=CC1=C(C)C(=O)C=C2C3=C(CCC21OCC)C(C)(OCC)C(=O)C=C3 (single isomer, unassigned) [Compound 6b] | 21.81±2.36 |

Same assay, conditions: Homo sapiens, MCF7, 10 μM; read-out: Growth inhibition (% ± SEM), MCF-7

| SMILES | inhibition at 10 µM [%] |
| --- | --- |
| C=CC1=C(C)C(=O)C=C2C3=C(CCC21OCC)C(C)(OCC)C(=O)C=C3 (single isomer, unassigned) [Compound 6a] | 19.6 ± 1.7 |

Same assay, conditions: Homo sapiens, MCF7; MTT, 0.1–30 μM, 72 h, mean ± SEM; read-out: calculated IC50 values, MCF-7

| SMILES | IC50 [µM] |
| --- | --- |
| C=CC1=C(C)C(=O)C=C2C3=C(CCC21OCC)C(C)(OCC)C(=O)C=C3 (single isomer, unassigned) [Compound 6a] | > 30 |

System: NIH/3T3 mouse embryonic fibroblast cells
Test: MTT assay for tumor selectivity on NIH/3T3
Assay type: cell-based
Settings: Mus musculus, NIH3T3; MTT, 0.1–30 μM, 72 h, mean ± SEM; read-out: calculated IC50 values, NIH/3T3
Method: as §1, §2, §3

| SMILES | IC50 [µM] |
| --- | --- |
| C=CC1=C(C)C(=O)C=C2C3=C(CCC21OCC)C(C)(OCC)C(=O)C=C3 (single isomer, unassigned) [Compound 6a] | 24.5 ± 1.9 |

Source: article PMC7707621, “Oxidized Juncuenin B Analogues with Increased Antiproliferative Activity on Human Adherent Cell Lines: Semisynthesis and Biological Evaluation” (Journal of Natural Products, 2020)
